Experimental data published in the supplement of paper PMC10307832.

Columns and labels:
Test in all cases: relative viability (nuclei count vs DMSO), 5 days (fraction); higher = more cells survive
[1] = compound: CC1=C(N=C(N=C1N)[C@H](CC(=O)N)NC[C@@H](C(=O)N)N)C(=O)N[C@@H]([C@H](C2=CN=CN2)OC3C(C(C(C(O3)CO)O)O)OC4C(C(C(C(O4)CO)O)OC(=O)N)O)C(=O)N[C@H](C)[C@H]([C@H](C)C(=O)N[C@@H]([C@@H](C)O)C(=O)NCCC5=NC(=CS5)C6=NC(=CS6)C(=O)NCCC[S+](C)C)O [Bleomycin] + CC(C)C[C@H](NC(=O)[C@H](Cc1ccccc1)NC(=O)c1cnccn1)B(O)O [Bortezomib] (partner 0.002 µM); details: main component drawn
Outline: (§1)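 Lung cancer cell lines in 1536-well plates got either a single drug or a fixed anchor-drug dose together with five library-drug doses (not always all listed) in √10 steps, by pin tool, on the day after seeding. Nuclei were counted after 5 days, and relative viability is the treated-to-vehicle ratio of nuclei counts. Values are medians of duplicate plates.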

[2] = compound: CC1=C(N=C(N=C1N)[C@H](CC(=O)N)NC[C@@H](C(=O)N)N)C(=O)N[C@@H]([C@H](C2=CN=CN2)OC3C(C(C(C(O3)CO)O)O)OC4C(C(C(C(O4)CO)O)OC(=O)N)O)C(=O)N[C@H](C)[C@H]([C@H](C)C(=O)N[C@@H]([C@@H](C)O)C(=O)NCCC5=NC(=CS5)C6=NC(=CS6)C(=O)NCCC[S+](C)C)O [Bleomycin] + O=C(CCCCCCC(=O)Nc1ccccc1)NO [Vorinostat] (partner 1 µM); details: main component drawn
Outline: as §1

[3] = compound: COc1cc([C@@H]2c3cc4c(cc3[C@@H](O[C@@H]3O[C@@H]5CO[C@@H](C)O[C@H]5[C@H](O)[C@H]3O)[C@H]3COC(=O)[C@H]23)OCO4)cc(OC)c1O [Etoposide] + NC(=O)Nc1cc(-c2cccc(F)c2)sc1C(=O)N[C@H]1CCCNC1 [AZD7762] (partner 0.2 µM)
Outline: as §1

[4] = compound: COc1cc([C@@H]2c3cc4c(cc3[C@@H](O[C@@H]3O[C@@H]5CO[C@@H](C)O[C@H]5[C@H](O)[C@H]3O)[C@H]3COC(=O)[C@H]23)OCO4)cc(OC)c1O [Etoposide] + N=C(N)NC(=N)NCCc1ccccc1 [Phenformin] (partner 250 µM)
Outline: as §1

Row | Cell Line | relative viability ([1]; first compound 0.01 µM) | relative viability ([1]; first compound 0.03162 µM) | relative viability ([1]; first compound 0.1 µM) | relative viability ([1]; first compound 0.3162 µM) | relative viability ([1]; first compound 1 µM) | relative viability ([2]; first compound 0.01 µM) | relative viability ([2]; first compound 0.03162 µM) | relative viability ([2]; first compound 0.1 µM) | relative viability ([2]; first compound 0.3162 µM) | relative viability ([2]; first compound 1 µM) | relative viability ([3]; first compound 0.03162 µM) | relative viability ([3]; first compound 0.1 µM) | relative viability ([3]; first compound 0.3162 µM) | relative viability ([3]; first compound 1 µM) | relative viability ([4]; first compound 0.01 µM) | relative viability ([4]; first compound 0.03162 µM) | relative viability ([4]; first compound 0.1 µM) | relative viability ([4]; first compound 0.3162 µM) | relative viability ([4]; first compound 1 µM) | relative viability ([3]; first compound 0.01 µM)
1 | NCI-H1993 | 1.2 | 1.06 | 0.95 | 0.539 | 0.548 | 0.669 | 0.585 | 0.864 | 0.303 | 0.386 | 0.838 | 0.474 | 0.759 | 0.596 | 0.502 | 0.571 | 0.528 | 0.51 | 0.412 | –
2 | NCI-H2347 | 0.915 | 1.05 | 0.889 | 0.7 | 0.476 | 0.487 | 0.518 | 0.414 | 0.338 | 0.39 | 0.828 | 0.311 | 0.374 | 0.367 | 0.39 | 0.446 | 0.345 | 0.247 | 0.294 | 0.685
3 | HCC-366 | 0.736 | 0.34 | 0.293 | 0.0464 | 0.0446 | 0.115 | 0.135 | 0.0903 | 0.0328 | 0.0275 | 0.251 | 0.187 | 0.091 | 0.0373 | 0.647 | 0.625 | 0.327 | 0.333 | 0.0669 | 0.227
4 | EMC-BAC-2 | 0.927 | 0.92 | 0.868 | 0.319 | 0.279 | – | 0.472 | 0.36 | 0.28 | 0.18 | 1.11 | 0.688 | 0.639 | 0.334 | 0.424 | 0.483 | 0.309 | 0.24 | 0.197 | 1.06
5 | NCI-H3122 | 0.999 | 0.976 | 0.957 | 0.698 | 0.428 | 1.15 | 0.882 | 0.823 | 0.517 | 0.334 | 0.998 | 0.834 | 0.607 | 0.181 | 0.351 | 0.382 | 0.377 | 0.281 | 0.197 | 0.998
6 | EPLC-272H | 0.863 | 0.883 | 0.718 | 0.174 | 0.158 | 0.296 | 0.323 | 0.223 | 0.12 | 0.0952 | 0.269 | 0.183 | 0.182 | 0.0802 | 0.281 | 0.308 | 0.267 | 0.263 | 0.226 | 0.272
7 | NCI-H1915 | 0.645 | 0.823 | 0.384 | 0.179 | 0.136 | 0.377 | 0.383 | 0.291 | 0.162 | 0.116 | 0.777 | 0.697 | 0.648 | 0.527 | 0.38 | 0.361 | 0.429 | 0.346 | 0.324 | 0.66
8 | NCI-H647 | 0.39 | 0.299 | 0.223 | 0.118 | 0.0632 | 0.205 | 0.132 | 0.105 | 0.0704 | 0.0607 | 0.323 | 0.307 | 0.165 | 0.0849 | 0.386 | 0.592 | 0.509 | 0.245 | 0.094 | 0.417
9 | NCI-H441 | – | 0.886 | 0.458 | 0.226 | 0.211 | 0.646 | 0.546 | 0.686 | 0.453 | 0.312 | 0.966 | 1.1 | 0.512 | 0.4 | 0.835 | 0.976 | 0.587 | 0.275 | 0.198 | 1.31
10 | NCI-H23 | 0.424 | 0.374 | 0.276 | 0.165 | 0.2 | 0.264 | 0.316 | 0.219 | 0.123 | 0.127 | 0.307 | 0.187 | 0.195 | 0.172 | 0.822 | 0.834 | 0.633 | 0.392 | 0.259 | 0.246
11 | NCI-H650 | 0.548 | 0.697 | 0.569 | 0.259 | 0.214 | 0.295 | 0.441 | 0.376 | 0.328 | 0.212 | 0.977 | 0.563 | 0.538 | 0.207 | 0.445 | 0.508 | 0.394 | 0.363 | 0.226 | 0.859
12 | NCI-H2085 | 0.768 | 0.875 | 0.707 | 0.377 | 0.366 | 0.777 | 0.721 | 0.679 | 0.378 | 0.386 | 0.905 | 0.803 | 0.911 | 0.453 | 0.748 | 0.78 | 0.532 | 0.547 | 0.322 | 0.831
13 | NCI-H838 | 0.67 | 0.204 | 0.23 | 0.0877 | 0.152 | 0.571 | 0.41 | 0.274 | 0.267 | 0.265 | 0.857 | 0.805 | 0.787 | 0.722 | 0.517 | 0.64 | 0.44 | 0.395 | 0.183 | 0.884
14 | NCI-H460 | 0.331 | 0.286 | 0.103 | 0.0317 | 0.0212 | 0.4 | 0.221 | 0.158 | 0.0343 | 0.0306 | 0.704 | 0.407 | 0.0776 | 0.0538 | 0.476 | 0.492 | 0.352 | 0.0419 | 0.0382 | 0.61
15 | LOU-NH91 | 0.493 | 0.439 | 0.355 | 0.335 | 0.348 | 0.718 | 0.544 | 0.508 | 0.387 | 0.345 | 0.836 | 0.67 | 0.656 | 0.482 | 0.692 | 0.756 | 0.692 | 0.653 | 0.404 | 0.784
